# From paper PMC12603982 (Angewandte Chemie (International Ed. in English), 2025)
# Like-named read-outs stand apart in the source and are kept apart here. Starred links: 1 amine or outer side, 2 acyl side, 3 side chain; linkers in the order of their positions; H or OH if unused. Positions of bridges follow the written chain, without caps; N, C: chain ends. Non-standard residues stand in square brackets, D forms with d. Residues, ends and D or L forms follow the SMILES beside them. Groups on a side chain read outwards from the residue. *: point of attachment. X3 = CCN1C(=CC=CC=CC2=[N+](CCCCCC(=O)*)c3ccc(S(=O)(=O)[O-])cc3C2(C)C)C(C)(C)c2cc(S(=O)(=O)O)ccc21; X1 = CCN1C(=CC=CC2=[N+](CCCCCC(=O)*)c3ccc(S(=O)(=O)O)cc3C2(C)C)C(C)(C)c2cc(S(=O)(=O)[O-])ccc21; X4 = CCN1C(=CC=CC2=[N+](CCCCCC(=O)*)c3ccc(S(=O)(=O)[O-])cc3C2(C)C)C(C)(C)c2cc(S(=O)(=O)O)ccc21; d(εLys) = N[C@H](CCCCN[*:1])C(=O)[*:2]; PEG5 = NCCOCCOCCOCCOCCOCCC(=O)O; Orn = NCCC[C@H](N)C(=O)O; Mpa = O=C(O)CCS
# Columns and labels:
# hOTR-GFP in HEK293 cells [1] = target: T1, hOTR-GFP in HEK293 cells (Homo sapiens, UniProt P30559); assay: hOTR-GFP internalization and tracer uptake, confocal microscopy after fixation/ICC; assay type: cell-based; set-up: expressed in transfected cells; conditions: for hOTR-GFP internalization / Tracer retention after ICC protocols: 100 nM; for Tracer retention after ICC protocols: 1 h stimulation, formaldehyde fixation, PBS washing; for Tracer signal after prolonged stimulation: 24 h treatment, post-fixation ICC
# T1 sequence (P30559 1-389): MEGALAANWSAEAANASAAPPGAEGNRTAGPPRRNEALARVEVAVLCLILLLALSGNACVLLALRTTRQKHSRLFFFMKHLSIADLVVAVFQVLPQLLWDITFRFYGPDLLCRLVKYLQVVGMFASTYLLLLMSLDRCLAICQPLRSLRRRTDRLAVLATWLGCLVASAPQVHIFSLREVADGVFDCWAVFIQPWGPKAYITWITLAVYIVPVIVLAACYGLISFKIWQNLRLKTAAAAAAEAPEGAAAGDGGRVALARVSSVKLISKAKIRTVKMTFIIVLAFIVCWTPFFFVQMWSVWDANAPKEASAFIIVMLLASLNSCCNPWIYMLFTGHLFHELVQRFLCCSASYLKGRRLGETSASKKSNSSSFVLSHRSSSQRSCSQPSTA
# From the text: To validate the application scope of our tracers for biological systems and post‐hoc imaging, we used HEK293 cells stably overexpressing human OTR or V1aR, tagged with a C‐terminal fused green fluorescent protein to visualize receptor trafficking (hOTR‐GFP or hV1aR‐GFP, respectively).
# subsequently washed with PBS and processed for immunocytochemistry.
# Immunocytochemistry and imaging. Unspecific protein binding was quenched with 5% normal donkey serum
# (Jackson ImmunoResearch), 2% bovine serum albumin (Sigma-Aldrich, Merck), and 0.2% Triton X-100 (Sigma-
# Aldrich, Merck) in PBS. Next, cells were exposed to primary antibody cocktails containing FITC-conjugated goat-
# anti-GF (1:2000, Sigma-Aldrich, Merck) and mouse pCREB (1:300, Sigma-Aldrich, Merck) in PBS with 2%
# normal donkey serum, 0.1% BSA, and 0.2% Triton X-100 overnight at 4°C. After three PBS washing steps, wells
# were incubated with secondary antibody cocktails (1:400, Jackson Immuno Research) containing suitable
# were mounted with glycerol gelatin (Sigma-Aldrich, Merck) and imaged on a Zeiss LSM 780/880 confocal
# microscope (Zeiss). Images were analyzed and equally contrasted for visualization with ZEN Pro (Zeiss) and
# hOTR [2] = target: T2, hOTR (Homo sapiens, UniProt P30559); assay: Radioligand displacement and saturation binding, membranes of HEK293 cells stably expressing hOTR, [3H]-OT; conditions: [3H]-OT, mean ± SD, duplicates, at least three independent experiments
# T2 construct: expressed in transfected cells
# T2 sequence (P30559 1-389): T1 sequence (P30559 1-389)
# Method: (§1) Membrane preparation for radioligand assays. HEK293 cells were used for stable expression of GFP-tagged
# (§2) human OTR, V1aR, V1bR, and V2R isoforms and transient expression of murine OTR, V1aR, V1bR, and V2R
# (§3) isoforms. Cell culture work was performed under sterile conditions with DMEM high glucose containing 10%
# (§4) FBS, and 50 U/mL P/S. Cells were cultured in 10 cm diameter cell culture dishes at 37°C in a humidified
# (§5) atmosphere with 5% CO2, and cells were passaged at 70-90% confluency.
# (§6) medium of stable cell lines at 0.5 mg/mL to sustain selection pressure, and cells were harvested at 90% confluency
# (§7) for membrane preparation. For transient expression of murine receptors, 60% confluent wild-type HEK293 cells
# (§8) were transfected using the jetPRIME transfection reagent according to the manufacturer’s protocol and harvested
# (§9) 48 h post-transfection. For membrane preparation, cells were washed with ice-cold PBS pH 7.4, scraped into fresh
# (§10) PBS on ice, and centrifuged at 4°C and 178 g for 10 min. The pellet was resuspended in a TRIS buffer solution
# ice-cold water bath sonicator. The obtained solution was centrifuged for 20 min at 54,192 g and 4°C. The obtained
# pellet was resuspended in TRIS buffer without protease inhibitors, homogenized with an ultrasonicator, aliquoted,
# and stored at -80°C until further use. A BCA assay was used to determine the protein concentration of the
# Radioligand displacement and saturation experiments. Assay solutions consisting of competing ligand,
# radioligand, and membrane preparation were incubated for 1 h at 37°C. Standard binding buffer solution (50 mM
# TRIS, 5 mM MgCl2, 0.1% BSA, pH 7.4) was used to prepare all dilutions; the final assay volume was 200 µL.
# concentrations were 8 μg/vial for hOTR, 5 μg/vial for hV1aR, and 3 μg/vial for hV1bR and hV2R, respectively , and
# 4 μg/vial for mOTR, 1.5 μg/vial for m V1aR, 3 μg/vial for mV 1bR, and 10 μg/vial for mV 2R. To assess non-specific
# Specific binding was determined by
# subtraction of the non-specific binding from the total binding. In radioligand displacement experiments, semi -
# logarithmically spaced concentrations of respective test ligands were applied to determine K i values based on
# assessed Kd values of radiotracers and by fitting the data to a three -parameter logistic Hill equation and applying
# the Cheng and Prusoff approximation. 10 In case of human receptors from stable cell lines, Kd and Bmax values were
# In case of murine receptors from transient
# was performed using GraphPad Prism (version 9.5.1) . After incubation, membranes were filtered and washed on
# a Skatron Cell Harvester using polyethyleneimine -coated glass fiber filters (type B, soaked in 0.1% aqueous
# 1 mM MgCl2, pH 7.4, 4°C). The soaked filter pieces were transferred into counter vials, and 2 mL of scintillation
# cocktail (LSC Universalcocktail) was added to each vial. After 1 h incubation at 25°C on a shaker, radioligand
# concentration was determined using a Tri -Carb liquid scintillation analyzer.
# response curves were obtained from radioligand displacement experiments of membrane preparations of HEK293
# Values were normalized to the percentage
# of maximum binding (i.e., no competing ligand present). Specific binding was obtained from the subtraction of
# non-specific binding from total binding. K i values were derived from one-site-fitted competition binding curves.
# [3] = tested on: CREB phosphorylation via hOTR-GFP; assay: In vitro phosphorylation assay (pCREB) in hOTR-GFP HEK293 cells; assay type: cell-based, human; conditions: range 1 nM to 1 µM
# [4] = tested on: parent HEK293 cells lacking hOTR; conditions: 100 nM
# [5] = target: hV1aR-GFP in HEK293 cells (Homo sapiens, UniProt P37288); assay: Tracer signal and internalization in hV1aR-GFP HEK293 cells post ICC; conditions: 100 nM
# hV1aR-GFP in HEK293 cells, sequence (P37288 whole entry): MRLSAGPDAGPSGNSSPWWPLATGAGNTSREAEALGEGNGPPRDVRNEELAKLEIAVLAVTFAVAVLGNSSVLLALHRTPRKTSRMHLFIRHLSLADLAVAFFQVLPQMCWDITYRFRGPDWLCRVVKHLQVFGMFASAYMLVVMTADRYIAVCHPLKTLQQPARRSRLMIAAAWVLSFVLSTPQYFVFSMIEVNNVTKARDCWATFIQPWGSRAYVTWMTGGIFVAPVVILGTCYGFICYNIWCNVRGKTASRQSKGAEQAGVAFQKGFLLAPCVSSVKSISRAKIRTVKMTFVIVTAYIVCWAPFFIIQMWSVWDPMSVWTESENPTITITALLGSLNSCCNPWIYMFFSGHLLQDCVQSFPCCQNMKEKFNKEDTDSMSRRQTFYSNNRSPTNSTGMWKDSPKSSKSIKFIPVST
# hOTR-GFP in HEK293 cells [6] = target: T1, hOTR-GFP in HEK293 cells; assay: Live single-particle tracking (TIRFM, uPAINT) of hOTR
# Method: We first exposed hOTR‐GFP cells to 10 and 100 nM of tracer (11) during acquisition with a ZEISS Lattice SIM microscope (Movies S1 and S2). […] To further disentangle the dynamics of our tracer‐mediated OTR engagement and trafficking, we evaluated its applicability in single‐particle tracking (SPT) in living cells. We cultured HEK293 (parent cells) and HEK293 cells stably expressing hOTR‐GFP (HEK293‐hOTR‐GFP) and performed total internal reflection microscopy (TIRFM) SPT universal point accumulation imaging in nanoscale topography (uPAINT) following the addition of 1 nM of tracer (10). […] This concentration was selected to facilitate the detection and tracking of single molecules of the fluorescent agonist tracer following binding to hOTR at the plasma membrane by uPAINT. […] We first assessed the number of tracks (indicative of the number of single molecules detected/tracked). […] We quantified the mean squared displacement of each trajectory to calculate its apparent diffusion coefficient. The diffusion coefficient of each trajectory of the tracer bound to hOTR was plotted as a frequency distribution (Figure 7b2 ).
# Live cell imaging. For 3D live cell imaging, attached and serum -starved HEK293-hOTR-GFP cells in 96-well
# glass bottom plates were imaged on a ZEISS Lattice SIM Microscope using a 40x oil objective and SIM 2 post- […]
# hOTR [7] = target: T2, hOTR; set-up: method as in PMID 8126695; conditions: cited from earlier work
# [8] = tested on: rat embryonic hippocampal neurons; assay: Tracer uptake in primary rat hippocampal neurons; assay type: cell-based; conditions: 100 nM, 1 h; E17.5 neurons cultured 14 days
# Method: Finally, we evaluated whether tracer (11) is applicable in primary cells endogenously expressing OTR.
# Primary UtSMC and hippocampal neuronal cultures.
# Muscle Cell Basal Medium 2 (PromoCell), including supplements (PromoCell) and P/S (Gibco) at 37°C and 5%
# CO2. Cells were trypsinized with 0.1% Trypsin/EDTA (Gibco) and plated on glass -bottom 96-well plates (CellVis)
# at a density of 10,000 cells/well in full growth medium. The next day, cells were stimulated with tracer ( 11), OTA ,
# dissociated with flame -polishe d Pasteur pipettes in Hank’s balanced salt solution (HBSS, Gibco). Tissue pieces
# were subsequently enzymatically dissociated with 0.1% Trypsin/EDTA (Gibco) in Neurobasal A (NBA, Gibco)
# containing 1,000U/mL DNase (Sigma) for 5 min at 37°C. Cells were triturated with flamed Pasteur pipettes,
# filtered through a 40 µm nylon mesh ( Thermo Fisher Scientific ), centrifuged at 200 g for 5 min, and washed up to
# three times in NBA containing P/S (Gibco), GlutaMax (Gibco) , and B27 supplement (Gibco). Cells were plated at
# 20,000 cells/well on PDL -coated (Sigma) glass -bottom black 96 -well microscopy plates (Cellvis) and grown at
# 37°C with 5% CO 2. Half of the medium was replaced every 3 -4 days. After 13 -14 days in vitro , neuronal cultures
# were exposed to 100 nM tracer ( 11) for one hour, with or without 30-min pretreatment with 10 µM of the peptide
# antagonist OTA. […]
# hV1bR = target: T3, hV1bR (Homo sapiens, UniProt P47901); assay: Radioligand displacement and saturation binding, membranes of HEK293 cells stably expressing hV1bR, [3H]-VP
# T3 construct: expressed in transfected cells; membrane preparation
# T3 sequence (P47901 1-424): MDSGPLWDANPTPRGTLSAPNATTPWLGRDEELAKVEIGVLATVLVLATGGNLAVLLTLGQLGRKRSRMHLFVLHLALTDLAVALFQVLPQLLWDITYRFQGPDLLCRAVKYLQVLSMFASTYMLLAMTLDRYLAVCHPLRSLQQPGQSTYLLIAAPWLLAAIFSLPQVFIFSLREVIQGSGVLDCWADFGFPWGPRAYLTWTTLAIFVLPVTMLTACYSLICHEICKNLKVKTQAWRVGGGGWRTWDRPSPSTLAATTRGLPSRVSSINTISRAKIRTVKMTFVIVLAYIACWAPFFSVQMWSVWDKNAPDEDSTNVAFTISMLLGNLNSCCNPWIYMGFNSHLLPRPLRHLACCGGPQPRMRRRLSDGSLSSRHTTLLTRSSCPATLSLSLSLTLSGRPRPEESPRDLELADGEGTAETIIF
# Method: as §1, §2, §3, §4, §5, §6, §7, §8, §9, §10
# (§11) ice-cold water bath sonicator. The obtained solution was centrifuged for 20 min at 54,192 g and 4°C. The obtained […]
# Specific binding was determined by […]
# (§12) assessed Kd values of radiotracers and by fitting the data to a three -parameter logistic Hill equation and applying […]
# (§13) concentration was determined using a Tri -Carb liquid scintillation analyzer. […]
# hV1aR = target: T4, hV1aR (Homo sapiens, UniProt P37288); assay: Radioligand displacement and saturation binding, membranes of HEK293 cells stably expressing hV1aR, [3H]-VP
# T4 construct: expressed in transfected cells
# T4 sequence (P37288 whole entry): as the sequence (P37288 whole entry) above
# Method: as §1, §2, §3, §4, §5, §6, §7, §8, §9, §10, §11
# Specific binding was determined by […]
# as §12, §13
# hV2R = target: T5, hV2R (Homo sapiens, UniProt P30518); assay: Radioligand displacement and saturation binding, membranes of HEK293 cells stably expressing hV2R, [3H]-VP
# T5 construct: expressed in transfected cells; membrane preparation
# T5 sequence (P30518 whole entry): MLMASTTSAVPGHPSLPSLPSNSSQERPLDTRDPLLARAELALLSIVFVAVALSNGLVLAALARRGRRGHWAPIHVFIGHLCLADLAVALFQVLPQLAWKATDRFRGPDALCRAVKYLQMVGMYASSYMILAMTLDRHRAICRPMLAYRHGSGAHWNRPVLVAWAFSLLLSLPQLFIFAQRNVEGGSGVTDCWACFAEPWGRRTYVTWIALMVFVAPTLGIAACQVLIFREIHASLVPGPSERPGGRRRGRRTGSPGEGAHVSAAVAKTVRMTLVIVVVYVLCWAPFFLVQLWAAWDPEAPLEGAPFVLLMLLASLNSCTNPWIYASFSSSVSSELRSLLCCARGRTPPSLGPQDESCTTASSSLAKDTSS
# Method: as §1, §2, §3, §4, §5, §6, §7, §8, §9, §10, §11
# Specific binding was determined by […]
# as §12, §13
smiles,measurement,setting,value
"CC[C@H](C)[C@@H]1NC(=O)[C@H](Cc2ccc(O)cc2)NC(=O)CCSSC[C@@H](C(=O)N2CCC[C@H]2C(=O)N[C@@H](CCCNC(=O)CCOCCOCCOCCOCCOCCNC(=O)CCCCC[N+]2=C(C=CC=CC=C3N(CC)c4ccc(S(=O)(=O)O)cc4C3(C)C)C(C)(C)c3cc(S(=O)(=O)[O-])ccc32)C(=O)NCC(N)=O)NC(=O)[C@H](CC(N)=O)NC(=O)[C@H](CCC(N)=O)NC1=O [Compound 3, d(Orn)^8OT‐[PEG5‐Cy5s]^8] ([Mpa]YIQNCP[Orn]([PEG5-X3])G-NH2; disulfide 1-6)",hOTR-GFP internalization,hOTR-GFP in HEK293 cells [1],significant hOTR‐GFP internalization
same,Tracer retention after ICC protocols,hOTR-GFP in HEK293 cells [1],washout after ICC protocols
same,Tracer signal after prolonged stimulation,hOTR-GFP in HEK293 cells [1],scarcely detectable
"CC[C@H](C)[C@@H]1NC(=O)[C@H](Cc2ccc(O)cc2)NC(=O)CCSSC[C@@H](C(=O)N2CCC[C@H]2C(=O)N[C@@H](CCCNC(=O)CCOCCOCCOCCOCCOCCNC(=O)CCCCC[N+]2=C(C=CC=C3N(CC)c4ccc(S(=O)(=O)[O-])cc4C3(C)C)C(C)(C)c3cc(S(=O)(=O)O)ccc32)C(=O)NCC(N)=O)NC(=O)[C@H](CC(N)=O)NC(=O)[C@H](CCC(N)=O)NC1=O [Compound 4, d(Orn)^8OT‐[PEG5‐Cy3s]^8] ([Mpa]YIQNCP[Orn]([PEG5-X1])G-NH2; disulfide 1-6)",Ki,hOTR [2]; read-out: Ki hOTR,1.5 ± 0.6 nM
CC[C@H](C)[C@@H]1NC(=O)[C@H](Cc2ccc(O)cc2)NC(=O)CCSSC[C@@H](C(=O)N2CCC[C@H]2C(=O)N[C@@H](CCCNC(=O)[C@H](N)CCCCNC(=O)[C@H](N)CCCCNC(=O)CCCCC[N+]2=C(C=CC=CC=C3N(CC)c4ccc(S(=O)(=O)O)cc4C3(C)C)C(C)(C)c3cc(S(=O)(=O)[O-])ccc32)C(=O)NCC(N)=O)NC(=O)[C@H](CC(N)=O)NC(=O)[C@H](CCC(N)=O)NC1=O [Compound 5] ([Mpa]YIQNCP[Orn]([d(εLys)-d(εLys)-X3])G-NH2; disulfide 1-6),Concentration from which CREB phosphorylation was observed,[3],≥ 10 nM
same,Internalization in parent HEK293 cells,[4],nor was it internalized into the cytoplasm
same,pCREB induction in parent HEK293 cells,[4],did not affect pCREB induction
same,Concentration from which tracer accumulation and GFP internalization were observed,hOTR-GFP in HEK293 cells [1]; hOTR-GFP HEK293 cells,≥ 10 nM
"CC[C@H](C)[C@@H]1NC(=O)[C@H](Cc2ccc(O)cc2)NC(=O)CCSSC[C@@H](C(=O)N2CCC[C@H]2C(=O)N[C@@H](CCCNC(=O)CCOCCOCCOCCOCCOCCNC(=O)[C@H](N)CCCCNC(=O)CCCCC[N+]2=C(C=CC=CC=C3N(CC)c4ccc(S(=O)(=O)O)cc4C3(C)C)C(C)(C)c3cc(S(=O)(=O)[O-])ccc32)C(=O)NCC(N)=O)NC(=O)[C@H](CC(N)=O)NC(=O)[C@H](CCC(N)=O)NC1=O [Compound 7, d(Orn)^8OT‐[PEG5‐k^ε‐Cy5s]^8] ([Mpa]YIQNCP[Orn]([PEG5-d(εLys)-X3])G-NH2; disulfide 1-6)",hOTR-GFP internalization,hOTR-GFP in HEK293 cells [1],significant hOTR‐GFP internalization
same,Tracer retention after ICC protocols,hOTR-GFP in HEK293 cells [1],remained present and detectable
same,Tracer signal after prolonged stimulation,hOTR-GFP in HEK293 cells [1],Signal intensity was increased
"CC[C@H](C)[C@@H]1NC(=O)[C@H](Cc2ccc(O)cc2)NC(=O)CCSSC[C@@H](C(=O)N2CCC[C@H]2C(=O)N[C@@H](CCCNC(=O)CCOCCOCCOCCOCCOCCNC(=O)[C@H](N)CCCCNC(=O)CCCCC[N+]2=C(C=CC=C3N(CC)c4ccc(S(=O)(=O)[O-])cc4C3(C)C)C(C)(C)c3cc(S(=O)(=O)O)ccc32)C(=O)NCC(N)=O)NC(=O)[C@H](CC(N)=O)NC(=O)[C@H](CCC(N)=O)NC1=O [Compound 8, d(Orn)^8OT‐[PEG5‐k^ε‐Cy3s]^8] ([Mpa]YIQNCP[Orn]([PEG5-d(εLys)-X1])G-NH2; disulfide 1-6)",Cy3s signal accumulation in hOTR-expressing cells,"hOTR-GFP in HEK293 cells [1]; post ICC, normalized to control",significant concentration‐dependent accumulation
same,Fluorescent signals and internalization in hV1aR-containing cells,[5],displayed fluorescent signals and internalization
"CC[C@H](C)[C@@H]1NC(=O)[C@H](Cc2ccc(O)cc2)NC(=O)CCSSC[C@@H](C(=O)N2CCC[C@H]2C(=O)N[C@@H](CCCNC(=O)CCOCCOCCOCCOCCOCCNC(=O)CCOCCOCCOCCOCCOCCNC(=O)[C@H](N)CCCCNC(=O)CCCCC[N+]2=C(C=CC=C3N(CC)c4ccc(S(=O)(=O)O)cc4C3(C)C)C(C)(C)c3cc(S(=O)(=O)[O-])ccc32)C(=O)NCC(N)=O)NC(=O)[C@H](CC(N)=O)NC(=O)[C@H](CCC(N)=O)NC1=O [Compound 9, d(Orn)^8OT‐[PEG5‐PEG5‐k^ε‐Cy3s]^8] ([Mpa]YIQNCP[Orn]([PEG5-PEG5-d(εLys)-X4])G-NH2; disulfide 1-6)",Ki,hOTR [2]; read-out: Ki hOTR,1.5 ± 0.5 nM
"CC[C@H](C)[C@@H]1NC(=O)[C@H](Cc2ccc(O)cc2)NC(=O)CCSSC[C@@H](C(=O)N2CCC[C@H]2C(=O)N[C@@H](CCCNC(=O)[C@@H](CC(=O)O)NC(=O)CCOCCOCCOCCOCCOCCNC(=O)CCCCC[N+]2=C(C=CC=CC=C3N(CC)c4ccc(S(=O)(=O)O)cc4C3(C)C)C(C)(C)c3cc(S(=O)(=O)[O-])ccc32)C(=O)NCC(N)=O)NC(=O)[C@H](CC(N)=O)NC(=O)[C@H](CCC(N)=O)NC1=O [Compound 10, d(Orn)^8OT‐[d‐PEG5‐Cy5s]^8] ([Mpa]YIQNCP[Orn]([dD-PEG5-X3])G-NH2; disulfide 1-6)",Average (apparent) diffusion coefficient,"hOTR-GFP in HEK293 cells [6]; 1 nM tracer, HEK293-hOTR-GFP, 50 Hz, tracer bound to hOTR, mean ± SEM",0.206 ± 0.017 µm^2 s^−1
same,Average number of tracks (per cell),"hOTR-GFP in HEK293 cells [6]; HEK293-hOTR-GFP cells, N=9 cells, 3 independent experiments",4884 ± 1718
"Cc1ccccc1N1CCN(S(=O)(=O)C[C@]23CC[C@H](C[C@@H]2NC(=O)[C@@H](N)CCS(C)(=O)=O)C3(C)C)CC1 [L368,899, reference compound]",IC50,hOTR [7],26 nM
same,Effect of antagonist pretreatment on tracer (11) uptake,"hOTR-GFP in HEK293 cells [1]; 10 µM, 30 min pretreatment",completely prevented tracer (11) uptake
"CC[C@H](C)[C@@H]1NC(=O)CCSSC[C@@H](C(=O)N2CCC[C@H]2C(=O)N[C@@H](CCCNC(=O)[C@@H](CC(=O)O)NC(=O)CCOCCOCCOCCOCCOCCNC(=O)[C@H](N)CCCCNC(=O)CCCCC[N+]2=C(C=CC=C3N(CC)c4ccc(S(=O)(=O)[O-])cc4C3(C)C)C(C)(C)c3cc(S(=O)(=O)O)ccc32)C(=O)NCC(N)=O)NC(=O)[C@H](CCC(N)=O)NC(=O)[C@H](Cc2ccc(O)cc2)NC(=O)[C@H](CC(N)=O)NC1=O [Scrambled tracer (SCR), dCINYQCP(Orn)G‐[d‐PEG5‐k^ε‐Cy3s]^8] ([Mpa]INYQCP[Orn]([dD-PEG5-d(εLys)-X1])G-NH2; disulfide 1-6)",Ki,hOTR [2]; Ki hOTR,> 10000 nM
same,hOTR-GFP internalization,hOTR-GFP in HEK293 cells [1],did not induce hOTR‐GFP internalization or accumulate in the cell cytoplasm
same,Tracer uptake in rat hippocampal neurons,[8],not taken up by neurons
same,Ki,hV1bR,> 10000 nM
same,Ki,hV1aR,> 10000 nM
same,Ki,hV2R,> 10000 nM
